Assay results published in patent publication US20210054047A1, “NOVEL ANTICANCER FUSION PROTEIN AND USE THEREOF” (KOREA INSTITUTE OF SCIENCE AND TECHNOLOGY, priority 2018, published 2021).

Assays:
HT29 tumor = assay: Antitumor efficacy, HT29 xenograft; assay type: in vivo, mouse; details: i.v. five times every 2 days, DOX-TTPNs 30 mg/kg, DOX 0.4 mg/kg, DOX-FTNs 15 mg/kg, empty TTPNs 30 mg/kg
Text: In the evaluation of the anti-tumor effect of the present invention, BALB/c nude male mice (6-7 weeks old) were used as an animal model. Particularly, HT29 cells (5×10^6) and HepG2 cells (5×10^6) were subcutaneously inoculated into the left dorsal flank of BALB/c nude mice, respectively. After a volume of tumors reached ˜80-100 mm^3, mice were randomly divided into the 14 following five treatment groups (6 mice/group); DOX-TTPNs, DOX-FTNs, free DOX, empty TTPNs, and buffer. Mice were intravenously injected five times, once every 2 days, and volume of tumors was determined as 1/2(Length×Width^2).
To this end, HT29 cells were implanted in mice, and after tumor volumes reached approximately 80˜100 mm^3, mice were intravenously injected with 30 mg/kg of DOX-TTPNs (equivalent to a DOX dose of 0.4 mg/kg), 0.4 mg/kg of DOX, 15 mg/kg of DOX-FTNs (equivalent to the number of moles of ferritin in a dose of TTPNs), or 30 mg/kg of empty TTPNs (equivalent to the number of moles of TRAIL in a dose of TTPNs) five times every 2 days, respectively.

HepG2 cells = assay: Cell viability, CCK-8 assay, HepG2; assay type: cell-based, human; details: TRAIL-sensitive HepG2 cells, 24 hours (FIG. 17)
Method: After culturing for 24 hours, cell viability was measured using a cell counting kit (CCK)-8 assay (Dojindo Molecular Technologies, Gaithersburg, Md.). The plate was then read with an absorbance microplate reader (Spectramax 340, Molecular Devices Corporation) at a wavelength of 450 nm and 50% effective by regression analysis using SigmaPlot software (Systat Software, Inc., San Jose, Calif.). The concentration value was calculated.

For “TTPN: protein nanocage presenting TRAIL as natural-like homo-trimers; TRAIL 95-281 fused by linker peptide to human ferritin heavy chain”, the “decrease of tumor volumes” value (HT29 tumor) was “no significant tumor-inhibition effect” and the “apoptosis” value (HepG2 cells) was “concentration-dependent apoptosis”.
